This data set concerns CCRIS mutagenicity, Ames/micronucleus/aberration tests. Put plainly: CCRIS mutagenicity studies.
Setting [1] is: Test System: AMES SALMONELLA TYPHIMURIUM, Strain/Indicator: TA100, Metabolic Activation: HAMSTER, LIVER, S-9, AROCLOR 1254 (10%), Method: PREINCUBATION
Where [2] appears, read: Test System: AMES SALMONELLA TYPHIMURIUM, Strain/Indicator: TA100, Metabolic Activation: NONE, Method: PREINCUBATION
The mark [3] stands for this setting: Test System: AMES SALMONELLA TYPHIMURIUM, Strain/Indicator: TA100, Metabolic Activation: RAT, LIVER, S-9, AROCLOR 1254 (10%), Method: PREINCUBATION
[4] abbreviates: Test System: AMES SALMONELLA TYPHIMURIUM, Strain/Indicator: TA1535, Metabolic Activation: HAMSTER, LIVER, S-9, AROCLOR 1254 (10%), Method: PREINCUBATION
Where [5] appears, read: Test System: AMES SALMONELLA TYPHIMURIUM, Strain/Indicator: TA1535, Metabolic Activation: NONE, Method: PREINCUBATION
Where [6] appears, read: Test System: AMES SALMONELLA TYPHIMURIUM, Strain/Indicator: TA1535, Metabolic Activation: RAT, LIVER, S-9, AROCLOR 1254 (10%), Method: PREINCUBATION
[7] abbreviates: Test System: AMES SALMONELLA TYPHIMURIUM, Strain/Indicator: TA98, Metabolic Activation: HAMSTER, LIVER, S-9, AROCLOR 1254, Method: STANDARD PLATE.
The mark [8] stands for this setting: Test System: AMES SALMONELLA TYPHIMURIUM, Strain/Indicator: TA98, Metabolic Activation: NONE, Method: STANDARD PLATE.
Setting [9] is: Test System: AMES SALMONELLA TYPHIMURIUM, Strain/Indicator: TA98, Metabolic Activation: RAT, LIVER, S-9, AROCLOR 1254, Method: STANDARD PLATE.
Setting [10] is: Test System: AMES SALMONELLA TYPHIMURIUM, Strain/Indicator: TA100, Metabolic Activation: HAMSTER, LIVER, S-9, AROCLOR 1254, Method: STANDARD PLATE.
The mark [11] stands for this setting: Test System: AMES SALMONELLA TYPHIMURIUM, Strain/Indicator: TA100, Metabolic Activation: NONE, Method: STANDARD PLATE.
Setting [12] is: Test System: AMES SALMONELLA TYPHIMURIUM, Strain/Indicator: TA100, Metabolic Activation: RAT, LIVER, S-9, AROCLOR 1254, Method: STANDARD PLATE.
Where [13] appears, read: Test System: AMES SALMONELLA TYPHIMURIUM, Strain/Indicator: TA1535, Metabolic Activation: HAMSTER, LIVER, S-9, AROCLOR 1254, Method: STANDARD PLATE.
[14] abbreviates: Test System: AMES SALMONELLA TYPHIMURIUM, Strain/Indicator: TA1535, Metabolic Activation: NONE, Method: STANDARD PLATE.
Where [15] appears, read: Test System: AMES SALMONELLA TYPHIMURIUM, Strain/Indicator: TA1535, Metabolic Activation: RAT, LIVER, S-9, AROCLOR 1254, Method: STANDARD PLATE.
Setting [16] is: Test System: AMES SALMONELLA TYPHIMURIUM, Strain/Indicator: TA1537, Metabolic Activation: HAMSTER, LIVER, S-9, AROCLOR 1254, Method: STANDARD PLATE.
[17] abbreviates: Test System: AMES SALMONELLA TYPHIMURIUM, Strain/Indicator: TA1537, Metabolic Activation: NONE, Method: STANDARD PLATE.
[18] abbreviates: Test System: AMES SALMONELLA TYPHIMURIUM, Strain/Indicator: TA1537, Metabolic Activation: RAT, LIVER, S-9, AROCLOR 1254, Method: STANDARD PLATE.
Setting [19] is: Test System: AMES SALMONELLA TYPHIMURIUM, Strain/Indicator: TA1538, Metabolic Activation: HAMSTER, LIVER, S-9, AROCLOR 1254, Method: STANDARD PLATE.
Setting [20] is: Test System: AMES SALMONELLA TYPHIMURIUM, Strain/Indicator: TA1538, Metabolic Activation: NONE, Method: STANDARD PLATE.
Setting [21] is: Test System: AMES SALMONELLA TYPHIMURIUM, Strain/Indicator: TA1538, Metabolic Activation: RAT, LIVER, S-9, AROCLOR 1254, Method: STANDARD PLATE.
The mark [22] stands for this setting: Test System: Mouse lymphoma, Strain/Indicator: L5178Y (tk+/tk-), Metabolic Activation: None, Method: Suspension/plate.
The mark [23] stands for this setting: Test System: Mouse lymphoma, Strain/Indicator: L5178Y (tk+/tk-), Metabolic Activation: Rat, Liver, S-9, Aroclor 1254, Method: Suspension/plate.

Calls of active or inactive are those of the source. The rule behind the calls is not given here.

On to `C=CC(=O)OCC1CO1` (centres undefined), for which the mutagenic call is, setting by setting: under setting [1], “active; positive”; under setting [2], “active; positive”; under setting [3], “active; positive”; under setting [4], “active; positive”; under setting [5], “active; positive”; under setting [6], “active; positive”.
Take `C=C1CC[C@H]2C[C@@H]1C2(C)C`: the mutagenic call is, setting by setting: (Test System: AMES SALMONELLA TYPHIMURIUM, Strain/Indicator: TA98, Metabolic Activation: HAMSTER, LIVER, S-9, AROCLOR 1254 (2.5-20%), Method: PREINCUBATION) “inactive; negative”; under setting [7], “inactive; negative”; under setting [8], “inactive; negative”; under setting [9], “inactive; negative”; (Test System: AMES SALMONELLA TYPHIMURIUM, Strain/Indicator: TA100, Metabolic Activation: HAMSTER, LIVER, S-9, AROCLOR 1254 (2.5-20%), Method: PREINCUBATION) “inactive; negative”; under setting [10], “inactive; negative”. The mutagenic call under setting [11] is “inactive; negative”; the mutagenic call under setting [12] is “inactive; negative”; the mutagenic call (Test System: AMES SALMONELLA TYPHIMURIUM, Strain/Indicator: TA102, Metabolic Activation: HAMSTER, LIVER, S-9, AROCLOR 1254, Method: PREINCUBATION) was “inactive; negative”; the mutagenic call (Test System: AMES SALMONELLA TYPHIMURIUM, Strain/Indicator: TA102, Metabolic Activation: NONE, Method: PREINCUBATION) is “inactive; negative”; the mutagenic call (Test System: AMES SALMONELLA TYPHIMURIUM, Strain/Indicator: TA102, Metabolic Activation: RAT, LIVER, S-9, AROCLOR 1254, Method: PREINCUBATION) was “inactive; negative”; the mutagenic call under setting [13] is “inactive; negative”. Also, the mutagenic call runs as follows: under setting [14], “inactive; negative”; under setting [15], “inactive; negative”; under setting [16], “inactive; negative”; under setting [17], “inactive; negative”; under setting [18], “inactive; negative”; under setting [19], “inactive; negative”. For the same compound, the mutagenic call is “inactive; negative” under setting [20], “inactive; negative” under setting [21], “inactive; negative” under setting [22] and “inactive; inconcludive (previous evaluation negative)” under setting [23].
Take `O=C(C(=O)c1ccccc1)c1ccccc1`: the mutagenic call runs as follows: under setting [7], “inactive; negative”; under setting [8], “inactive; negative”; under setting [9], “inactive; negative”; under setting [10], “inactive; negative”; under setting [11], “inactive; negative”; under setting [12], “inactive; negative”. Also, the mutagenic call by setting is: under setting [13], “inactive; negative”; under setting [14], “inactive; negative”; under setting [15], “inactive; negative”; under setting [16], “inactive; negative”; under setting [17], “inactive; negative”; under setting [18], “inactive; negative”. The mutagenic call is “inactive; negative” under setting [19]; “inactive; negative” under setting [20]; “inactive; negative” under setting [21]; “inactive; inconclusive (previous evaluation negative)” under setting [22]; “inactive; negative” under setting [23].
With `CCCN(CO)N=O`, the mutagenic call (Test System: CHINESE HAMSTER V-79, Strain/Indicator: V-79/OUABAIN, Metabolic Activation: NONE) is “active; positive”.
`CC(C)(C)OOC(=O)c1ccccc1`: the mutagenic call is “active; positive” (Test System: AMES SALMONELLA TYPHIMURIUM, Strain/Indicator: TA98, Metabolic Activation: HAMSTER, LIVER, S-9, AROCLOR 1254 (10%), Method: PREINCUBATION); “active; positive” (Test System: AMES SALMONELLA TYPHIMURIUM, Strain/Indicator: TA98, Metabolic Activation: NONE, Method: PREINCUBATION); “active; positive” (Test System: AMES SALMONELLA TYPHIMURIUM, Strain/Indicator: TA98, Metabolic Activation: RAT, LIVER, S-9, AROCLOR 1254 (10%), Method: PREINCUBATION); “active; positive” under setting [1]; “inactive; negative” under setting [2]; “inactive; negative” under setting [3]. For the same compound, the mutagenic call is “inactive; negative” under setting [4]; “inactive; negative” under setting [5]; “inactive; negative” under setting [6]; “active; positive” (Test System: AMES SALMONELLA TYPHIMURIUM, Strain/Indicator: TA1537, Metabolic Activation: HAMSTER, LIVER, S-9, AROCLOR 1254 (10%), Method: PREINCUBATION); “active; positive” (Test System: AMES SALMONELLA TYPHIMURIUM, Strain/Indicator: TA1537, Metabolic Activation: NONE, Method: PREINCUBATION); “active; positive” (Test System: AMES SALMONELLA TYPHIMURIUM, Strain/Indicator: TA1537, Metabolic Activation: RAT, LIVER, S-9, AROCLOR 1254 (10%), Method: PREINCUBATION).
Consider `O=[N+]([O-])c1ccc(OC[C@@H]2CO2)cc1`, for which the mutagenic call under setting [11] is “active; positive”.

For the origin of these results see PubChem BioAssay AID1259407 (Chemical Carcinogenesis Research Information System (CCRIS), 2018).
